Drawing on patent US20090285773A1, “Hepatitis C Virus Inhibitors” (Bristol-Myers Squibb Company, priority 2008, published 2009), this text covers IC50 and EC50 for five molecules.

One experiment concerns the target T1, NS3/4A protease complex (UniProt P27958).
T1 construct: fused on or other part: three-lysine solubilising tail at the C-terminus of NS4A; probably a His tag from pET21b (Ni-NTA purification)
The experiment in a line: HCV NS3/4A protease complex enzyme assay (strain not stated). Type of experiment: biochemical. The note with it: Table 2; strain and unit inferred. An excerpt: The purpose of this in vitro assay was to measure the inhibition of HCV NS3 protease complexes, derived from the BMS strain, H77 strain or J4L6S strain, as described above, by compounds of the present disclosure. This assay provides an indication of how effective compounds of the present disclosure would be in inhibiting HCV NS3 proteolytic activity.
In order to monitor HCV NS3/4A protease activity, an NS3/4A peptide substrate was used. The substrate was RET S1 (Resonance Energy Transfer Depsipeptide Substrate; AnaSpec, Inc. cat #22991)(FRET peptide), described by Taliani et al. in Anal. Biochem. 240(2):60-67 (1996). The sequence of this peptide is loosely based on the NS4A/NS4B natural cleavage site for the HCV NS3 protease except there is an ester linkage rather than an amide bond at the cleavage site. The peptide also contains a fluorescence donor, EDANS, near one end of the peptide and an acceptor, DABCYL, near the other end. The fluorescence of the peptide is quenched by […] resonance energy transfer (RET) between the donor and the acceptor, but as the NS3 protease cleaves the peptide the products are released from RET quenching and the fluorescence of the donor becomes apparent.
The peptide substrate was incubated with one of the three recombinant NS3/4A protease complexes, in the absence or presence of a compound of the present disclosure. The inhibitory effects of a compound were determined by monitoring the formation of fluorescent reaction product in real time using a Cytofluor Series 4000.
Assay buffer: 50 mM HEPES, pH 7.5; 0.15 M NaCl; 0.1% Triton; 15% Glycerol; 10 mM βME. Substrate: 2 μM final concentration (from a 2 mM stock solution in DMSO stored at −20° C.). HCV NS3/4A protease type 1a (1b), 2-3 nM final concentration (from a 5 μM stock solution in 25 mM HEPES, pH 7.5, 20% glycerol, 300 mM NaCl, 0.2% Triton-X100, 10 mM βME). For compounds with potencies approaching the assay limit, the assay was made more sensitive by adding 50 μg/ml Bovine Serum Albumin (Sigma) to the assay buffer and reducing the end protease concentration to 300 pM.
The assay was performed in a 96-well polystyrene black plate from Falcon. Each well contained 25 μl NS3/4A protease complex in assay buffer, 50 μl of a compound of the present disclosure in 10% DMSO/assay buffer and 25 μl substrate in assay buffer. A control (no compound) was also prepared on the same assay plate. The enzyme complex was mixed with compound or control solution for 1 min before initiating the enzymatic reaction by the addition of substrate. The assay plate was read immediately using the Cytofluor Series 4000 (Perspective Biosystems). The instrument was set to read an emission of […] at 25° C. Reactions were generally followed for approximately 15 min.
The percent inhibition was calculated with the following equation: […]
where δF is the change in fluorescence over the linear range of the curve. A non-linear curve fit was applied to the inhibition-concentration data, and the 50% effective concentration (IC50) was calculated by the use of Excel XLfit software using the equation, y=A+((B−A)/(1+((C/x)̂D))).

The test system of experiment [1] is HCV replicon (strain 1b) in HUH-7 cells. In words: HCV replicon FRET assay. Type of experiment: cell-based. The note with it: Hepatitis C virus, Huh-7; Table 2; replicon assay variant and unit inferred; read-out: EC50. An excerpt:
An HCV replicon whole cell system was established as described by Lohmann V, Korner F, Koch J, Herian U, Theilmann L, Bartenschlager R., Science 285(5424): 110-3 (1999). This system enabled us to evaluate the effects of our HCV Protease compounds on HCV RNA replication. Briefly, using the HCV strain 1b sequence described in the Lohmann paper (Assession number:AJ238799), an HCV cDNA was synthesized by Operon Technologies, Inc. (Alameda, Calif.), and the full-length replicon was then assembled in plasmid pGem9zf(+) (Promega, Madison, Wis.) using standard molecular biology techniques. The replicon consists of (i) the HCV 5′ UTR fused to the first 12 amino acids of the capsid protein, (ii) the neomycin phosphotransferase gene (neo), (iii) the IRES from encephalomyocarditis virus (EMCV), and (iv) HCV NS3 to NS5B genes and the HCV 3′ UTR. Plasmid DNAs were linearized with ScaI and RNA transcripts were synthesized in vitro using the T7 MegaScript transcription kit (Ambion, Austin, Tex.) according to manufacturer's directions. In vitro transcripts of the cDNA were transfected into the human hepatoma cell line, HUH-7. […] Resulting cell lines were characterized for positive and negative strand RNA production and protein production over time.
The HCV replicon FRET assay was developed to monitor the inhibitory effects of compounds described in the disclosure on HCV viral replication. HUH-7 cells, constitutively expressing the HCV replicon, were grown in Dulbecco's Modified Eagle Media (DMEM) (Gibco-BRL) containing 10% Fetal calf serum (FCS) (Sigma) and 1 mg/ml G418 (Gibco-BRL). Cells were seeded the night before (1.5×10^4 cells/well) in 96-well tissue-culture sterile plates. Compound and no compound controls were prepared in DMEM containing 4% FCS, 1:100 Penicillin/Streptomysin (Gibco-BRL), 1:100 L-glutamine and 5% DMSO in the dilution plate (0.5% DMSO final concentration in the assay). Compound/DMSO mixes were added to the cells and incubated for 4 days at 37° C. After 4 days, cells were first assessed for cytotoxicity using alamar Blue (Trek Diagnotstic Systems) for a CC50 reading. The toxicity of compound (CC50) was determined by adding 1/10th volume of alamar Blue to the media incubating the cells. After 4 h, the fluorescence signal from each well was read, with an excitation wavelength at 530 nm and an emission wavelength of 580 nm, using the Cytofluor Series 4000 (Perspective Biosystems). Plates were then rinsed thoroughly with Phosphate-Buffered Saline (PBS) (3 times 150 μl).

T1 sequence (P27958 1027-1657, one chain of several): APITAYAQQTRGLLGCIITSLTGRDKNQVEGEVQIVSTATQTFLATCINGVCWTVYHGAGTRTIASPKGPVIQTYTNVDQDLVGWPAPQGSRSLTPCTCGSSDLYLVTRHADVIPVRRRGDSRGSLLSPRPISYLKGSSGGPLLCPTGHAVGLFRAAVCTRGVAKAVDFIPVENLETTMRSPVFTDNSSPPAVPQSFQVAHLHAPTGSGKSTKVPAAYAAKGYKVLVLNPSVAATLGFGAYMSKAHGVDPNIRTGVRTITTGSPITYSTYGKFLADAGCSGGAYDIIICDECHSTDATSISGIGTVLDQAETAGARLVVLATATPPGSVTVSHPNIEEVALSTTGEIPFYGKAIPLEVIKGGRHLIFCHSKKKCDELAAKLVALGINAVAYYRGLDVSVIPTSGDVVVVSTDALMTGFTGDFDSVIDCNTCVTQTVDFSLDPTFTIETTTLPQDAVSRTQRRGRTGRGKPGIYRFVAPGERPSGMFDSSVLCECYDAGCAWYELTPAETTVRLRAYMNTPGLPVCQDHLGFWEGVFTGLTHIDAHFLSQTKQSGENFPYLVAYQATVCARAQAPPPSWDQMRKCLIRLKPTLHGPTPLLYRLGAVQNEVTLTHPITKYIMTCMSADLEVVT

On NS3/4A protease complex, `COc1ccc(N[C@H]2CCCCC/C=C\[C@@H]3C[C@@]3(C(=O)NS(=O)(=O)C3CC3)NC(=O)[C@@H]3C[C@@H](Oc4ncc(OC)c5ccc(Cl)cc45)CN3C2=O)cn1` (single isomer, unassigned) [Compound 2] displayed an IC50 of 6 nM. For the same molecule, in experiment [1], the EC50 is 9.1 nM.
Taken in the same sequence, the figures for `COc1ccc2c(O[C@@H]3C[C@H]4C(=O)N[C@]5(C(=O)NS(=O)(=O)C6CC6)C[C@H]5/C=C\CCCCC[C@H](Nc5nc(-c6ccc(OC(F)(F)F)cc6)cs5)C(=O)N4C3)nccc2c1` [Compound 3] were 5 nM and 6.2 nM.
`COc1ccc2c(O[C@@H]3C[C@H]4C(=O)N[C@]5(C(=O)NS(=O)(=O)C6CC6)C[C@H]5/C=C\CCCCC[C@H](Nc5nc(-c6ccc(F)cc6F)cs5)C(=O)N4C3)nccc2c1` [Compound 4] returned an IC50 on NS3/4A protease complex of 11 nM. The concentration for a half-maximal effect (EC50) in experiment [1] stood at 13.8 nM.
At NS3/4A protease complex, `COc1ccc2c(O[C@@H]3C[C@H]4C(=O)N[C@]5(C(=O)NS(=O)(=O)C6CC6)C[C@H]5/C=C\CCCCC[C@H](Nc5nc(-c6ccccc6)cs5)C(=O)N4C3)nccc2c1` [Compound 5] registered an IC50 of 3 nM. Also, the 50% effective concentration (EC50) in experiment [1] amounted to 8.1 nM.
`COc1cnc(O[C@@H]2C[C@H]3C(=O)N[C@]4(C(=O)NS(=O)(=O)C5CC5)C[C@H]4/C=C\CCCCC[C@H](Nc4nc(-c5ccc(OC(F)(F)F)cc5)cs4)C(=O)N3C2)c2cc(Cl)ccc12` [Compound 6] returned an IC50 against NS3/4A protease complex of 2 nM. The EC50 in experiment [1] turned out to be 8.7 nM.

As a reminder, the IC50 is the concentration that gives 50% inhibition. The EC50 is the midpoint of the concentration-response curve.
